# PubChem BioAssay (NCI)
#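 Compound exposure: 48 hours, 5 concentrations, 96-well plates. GI50 = concentration required for 50% inhibition of growth. Definition used: TGI = concentration required for complete inhibition of growth.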 *1 amine or outer side, *2 acyl side, *3 side chain or, on linkers, in order; H or OH if unused. Where a SMILES comes first, the peptide text is derived from it. [ ]: non-standard residue; d: D form. The star is where a group is joined. ξ: configuration not given here. X11 = CCC(=O)CC(O)CC(C)CC(N[*:1])C(=O)[*:2]; ξLeu(3ξ-OH) = CC(C)C(O)C(N)C(=O)O; ξPro(4ξ-Me) = CC1CNC(C(=O)O)C1; X10 = CCC(C)/C=C/C(=O)*; Aib = CC(C)(N)C(=O)O; X12 = CC(CN(C)C)N*; βAla = NCCC(=O)O
# Key:
# Experiment in all cases: growth of human tumour cells (NCI), 48 h
# MOLT-4 leukemia = system: MOLT-4 leukemia
# CCRF-CEM leukemia = system: CCRF-CEM leukemia
# SF-268 CNS = system: SF-268 CNS
# SK-OV-3 ovarian = system: SK-OV-3 ovarian
# RPMI-8226 leukemia = system: RPMI-8226 leukemia
# A498 renal = system: A498 renal
# CAKI-1 renal = system: CAKI-1 renal
# NCI-H226 lung = system: NCI-H226 lung
# HOP-92 NSCLC = system: HOP-92 NSCLC
# NCI-H23 lung = system: NCI-H23 lung
# UACC-257 melanoma = system: UACC-257 melanoma
# BT-549 breast = system: BT-549 breast
# NCI-H460 lung = system: NCI-H460 lung
# COLO 205 colon = system: COLO 205 colon
# UO-31 renal = system: UO-31 renal
# 786-0 renal = system: 786-0 renal
# T-47D breast = system: T-47D breast
# OVCAR-3 ovarian = system: OVCAR-3 ovarian
# SN12C renal = system: SN12C renal
# SK-MEL-2 melanoma = system: SK-MEL-2 melanoma
# NCI-H522 lung = system: NCI-H522 lung
# ACHN renal = system: ACHN renal
# SNB-19 CNS = system: SNB-19 CNS
# HT29 colon = system: HT29 colon
# MDA-MB-231 breast = system: MDA-MB-231 breast
# OVCAR-8 ovarian = system: OVCAR-8 ovarian
# SW-620 colon = system: SW-620 colon
# NCI/ADR-RES ovarian = system: NCI/ADR-RES ovarian
# HCT-15 colon = system: HCT-15 colon
# OVCAR-5 ovarian = system: OVCAR-5 ovarian
# SK-MEL-28 melanoma = system: SK-MEL-28 melanoma
# HCT-116 colon = system: HCT-116 colon
# SR leukemia = system: SR leukemia
# HS 578T breast = system: HS 578T breast
# MCF7 breast = system: MCF7 breast
# M14 melanoma = system: M14 melanoma
# K-562 leukemia = system: K-562 leukemia
# SF-295 CNS = system: SF-295 CNS
# LOX IMVI melanoma = system: LOX IMVI melanoma
# MDA-MB-435 = system: MDA-MB-435
# UACC-62 melanoma = system: UACC-62 melanoma
# PC-3 prostate = system: PC-3 prostate
# TK-10 renal = system: TK-10 renal
# A549 NSCLC = system: A549 NSCLC
# EKVX NSCLC = system: EKVX NSCLC
# KM12 colon = system: KM12 colon
# U251 CNS = system: U251 CNS
# HOP-62 NSCLC = system: HOP-62 NSCLC
# IGROV1 ovarian = system: IGROV1 ovarian
# HL-60(TB) leukemia = system: HL-60(TB) leukemia
# SK-MEL-5 melanoma = system: SK-MEL-5 melanoma
smiles,measurement,setting,value
CC1(C)CC[C@]2(CO)CC[C@]3(C)C(=CC[C@@H]4[C@@]5(C)CC[C@H](NCO)C(C)(C)[C@@H]5CC[C@]43C)[C@@H]2C1,GI50,MOLT-4 leukemia,1.91 µM
same,TGI,MOLT-4 leukemia,5.1 µM
same,GI50,CCRF-CEM leukemia,2.04 µM
same,TGI,CCRF-CEM leukemia,5.94 µM
same,GI50,SF-268 CNS,2.39 µM
same,TGI,SF-268 CNS,6.22 µM
same,GI50,SK-OV-3 ovarian,3.29 µM
same,TGI,SK-OV-3 ovarian,9.06 µM
same,GI50,RPMI-8226 leukemia,1.75 µM
same,TGI,RPMI-8226 leukemia,4.57 µM
same,GI50,A498 renal,1.38 µM
same,TGI,A498 renal,2.83 µM
same,GI50,CAKI-1 renal,1.85 µM
same,TGI,CAKI-1 renal,3.52 µM
same,GI50,NCI-H226 lung,2.26 µM
same,TGI,NCI-H226 lung,5.73 µM
CCC(=O)CC(O)CC(C)CC(NC(=O)C1CC(C)CN1C(=O)/C=C/C(C)CC)C(=O)NC(C(=O)NC(C)(C)C(=O)NC(CC(C)C)C(=O)NC(CC(C)C)C(=O)NC(C)(C)C(=O)NC(C)(C)C(=O)NCCC(=O)NC(C)CN(C)C)C(O)C(C)C (centres undefined) (X10-[ξPro(4ξ-Me)][X11][ξLeu(3ξ-OH)][Aib]LL[Aib][Aib][βAla]-X12; configuration not given here),TGI,HOP-92 NSCLC,1.09 µM
same,TGI,NCI-H23 lung,7.7 µM
same,TGI,UACC-257 melanoma,17 µM
same,TGI,NCI-H226 lung,3.62 µM
same,TGI,BT-549 breast,11.3 µM
CC(=O)NS(=O)(=O)c1ccc(-n2nc(-c3ccccc3)cc2-c2cc(O)ccc2O)cc1,GI50,NCI-H460 lung,> 100 µM
same,TGI,NCI-H460 lung,> 100 µM
same,GI50,HOP-92 NSCLC,> 100 µM
same,TGI,HOP-92 NSCLC,> 100 µM
same,GI50,COLO 205 colon,44 µM
same,TGI,COLO 205 colon,> 100 µM
same,GI50,NCI-H23 lung,> 100 µM
same,TGI,NCI-H23 lung,> 100 µM
same,GI50,UO-31 renal,> 100 µM
same,TGI,UO-31 renal,> 100 µM
same,GI50,MOLT-4 leukemia,> 100 µM
same,TGI,MOLT-4 leukemia,> 100 µM
same,GI50,786-0 renal,57.5 µM
same,TGI,786-0 renal,> 100 µM
same,GI50,T-47D breast,> 100 µM
same,TGI,T-47D breast,> 100 µM
same,GI50,CCRF-CEM leukemia,> 100 µM
same,TGI,CCRF-CEM leukemia,> 100 µM
same,GI50,SF-268 CNS,> 100 µM
same,TGI,SF-268 CNS,> 100 µM
same,GI50,OVCAR-3 ovarian,> 100 µM
same,TGI,OVCAR-3 ovarian,> 100 µM
same,GI50,SN12C renal,> 100 µM
same,TGI,SN12C renal,> 100 µM
same,GI50,SK-MEL-2 melanoma,> 100 µM
same,TGI,SK-MEL-2 melanoma,> 100 µM
same,GI50,NCI-H522 lung,45 µM
same,TGI,NCI-H522 lung,> 100 µM
same,GI50,ACHN renal,> 100 µM
same,TGI,ACHN renal,> 100 µM
same,GI50,SNB-19 CNS,> 100 µM
same,TGI,SNB-19 CNS,> 100 µM
same,GI50,UACC-257 melanoma,> 100 µM
same,TGI,UACC-257 melanoma,> 100 µM
same,GI50,HT29 colon,> 100 µM
same,TGI,HT29 colon,> 100 µM
same,GI50,RPMI-8226 leukemia,> 100 µM
same,TGI,RPMI-8226 leukemia,> 100 µM
same,GI50,MDA-MB-231 breast,39.2 µM
same,TGI,MDA-MB-231 breast,> 100 µM
same,GI50,OVCAR-8 ovarian,> 100 µM
same,TGI,OVCAR-8 ovarian,> 100 µM
same,GI50,SW-620 colon,> 100 µM
same,TGI,SW-620 colon,> 100 µM
same,GI50,NCI/ADR-RES ovarian,> 100 µM
same,TGI,NCI/ADR-RES ovarian,> 100 µM
same,GI50,HCT-15 colon,> 100 µM
same,TGI,HCT-15 colon,> 100 µM
same,GI50,OVCAR-5 ovarian,> 100 µM
same,TGI,OVCAR-5 ovarian,> 100 µM
same,GI50,SK-MEL-28 melanoma,> 100 µM
same,TGI,SK-MEL-28 melanoma,> 100 µM
same,GI50,HCT-116 colon,27.2 µM
same,TGI,HCT-116 colon,> 100 µM
same,GI50,SR leukemia,> 100 µM
same,TGI,SR leukemia,> 100 µM
same,GI50,HS 578T breast,> 100 µM
same,TGI,HS 578T breast,> 100 µM
same,GI50,MCF7 breast,> 100 µM
same,TGI,MCF7 breast,> 100 µM
same,GI50,M14 melanoma,31.4 µM
same,TGI,M14 melanoma,> 100 µM
same,GI50,K-562 leukemia,> 100 µM
same,TGI,K-562 leukemia,> 100 µM
same,GI50,SF-295 CNS,> 100 µM
same,TGI,SF-295 CNS,> 100 µM
same,GI50,LOX IMVI melanoma,> 100 µM
same,TGI,LOX IMVI melanoma,> 100 µM
same,GI50,MDA-MB-435,> 100 µM
same,TGI,MDA-MB-435,> 100 µM
same,GI50,UACC-62 melanoma,62 µM
same,TGI,UACC-62 melanoma,> 100 µM
same,GI50,CAKI-1 renal,> 100 µM
same,TGI,CAKI-1 renal,> 100 µM
same,GI50,PC-3 prostate,> 100 µM
same,TGI,PC-3 prostate,> 100 µM
same,GI50,TK-10 renal,10.9 µM
same,TGI,TK-10 renal,> 100 µM
same,GI50,A549 NSCLC,> 100 µM
same,TGI,A549 NSCLC,> 100 µM
same,GI50,EKVX NSCLC,> 100 µM
same,TGI,EKVX NSCLC,> 100 µM
same,GI50,KM12 colon,> 100 µM
same,TGI,KM12 colon,> 100 µM
same,GI50,NCI-H226 lung,> 100 µM
same,TGI,NCI-H226 lung,> 100 µM
same,GI50,U251 CNS,61.6 µM
same,TGI,U251 CNS,> 100 µM
same,GI50,HOP-62 NSCLC,> 100 µM
same,TGI,HOP-62 NSCLC,> 100 µM
same,GI50,IGROV1 ovarian,> 100 µM
same,TGI,IGROV1 ovarian,> 100 µM
same,GI50,BT-549 breast,> 100 µM
same,TGI,BT-549 breast,> 100 µM
same,GI50,HL-60(TB) leukemia,61.8 µM
same,TGI,HL-60(TB) leukemia,> 100 µM
same,GI50,SK-MEL-5 melanoma,> 100 µM
same,TGI,SK-MEL-5 melanoma,> 100 µM
